Legend:
[1] = parameters: species or system New Zealand White rabbit; conditions: rabbit, in vivo
Description: In this study, the ocular tolerability and toxicokinetics of suprachoroidal administration of Ting triamcinolone acetonide (TA) using microneedle was determined, in the New Zealand White rabbit as an animal model.
On Day 0, New Zealand White (NZW) rabbits (4/sex/group/terminal time point, 48 total) were administered a single bilateral suprachoroidal injection of 100 μL of 4 ma TA (40 mg/mL) or vehicle, using a 33 g 750 μm microneedle. Clinical Observations, body weights, food consumption, slit lamp biomicroscopy with McDonald-Shadduck scoring, indirect ophthalmoscopy, intraocular pressure assessment (IOP), central corneal thickness (CCT), electroretinography (ERG), serum chemistry and hematology, and systemic exposure were assessed up to 13 weeks post-dose. Animals were sacrificed on Day 1 or Week 13 and were evaluated for macroscopic observations at necropsy and ocular histopathology. Four animals/sex were given an additional suprachoroidal administration on Day 90, and will be followed for an additional 13 weeks.

[2] = Ocular toxicokinetics of TA after suprachoroidal or intravitreal injection (Example 8); format: in vivo, pigmented rabbits; conditions: SCS, 2 mg TA, compared with intravitreal
Description: in this study, the total amount of triamcinolone acetonide (TA) delivered into live pigmented rabbit eyes when injected, into the suprachoroidal space using a hollow microneedle or into the vitreous using a standard 30 gauge needle was compared.
On Day 0, pigmented rabbits were injected with either intravitreal or bilateral suprachoroidal injections of 2 mg/100 μl TA Triesence® (TA; Alcon Labs). intravitreal injections were performed using a 30 g needle (Becton-Dickinson) and suprachoroidal injections were performed using a 33 g 750 μm microneedle. The residual amount of TA present in the syringe/needle assembly after injection was determined by RP-HPLC. Clinical observations, slit lamp biomicroscopy with McDonald-Shadduck scoring, intraocular pressure assessment (IOP), electroretinography (ERG), and systemic exposure were assessed up to 120 days post-dose. Animals were sacrificed at 30 minutes, 7 days, 30 days, 60 days, and 120 days for macroscopic observations, ocular toxicokinetics, and ocular histopathology.

[3] = test system: subretinal endotoxin-induced model of posterior segment uveitis; experiment: Subretinal endotoxin-induced model of posterior segment uveitis, pretreatment with SCS or IVT TA (Example 11); format: in vivo, New Zealand White rabbits
Description: In this study, the effects of pretreatment with suprachoroidal or intravitreal triamcinolone acetonide (TA) in a subretinal endotoxin-induced model of posterior segment uveitis in New Zealand White rabbits was evaluated.
On Day 1, female rabbits (4 eyes/group) received a single unilateral injection of vehicle or 4 mg TA (Triesence®, 40 mg/mL suspension, Alcon Labs) into the suprachoroidal space (SCS) using a 33 g 750 μm microneedle, or a 4 mg TA IVT injection using a standard 30 g needle. On Day 6, each animal received a single unilateral subretinal injection of lipopolysaccharide (LPS, 20-30 μL, 203 μg/g of 1% sodium hylauronate) to induce ocular inflammation in the treated eye. Animals were monitored for 22 days following dose administration. Endpoints included body weights, ocular observations, slit lamp biomicroscopy with McDonald-Shadduck scoring and photography, indirect ophthalmoscopy, fundus photography, intraocular pressure (IOP), and histopathology. A summary of the study design is shown below, in Table 6.

[4] = test system: LPS-induced acute posterior uveitis; experiment: Aqueous and vitreous humor inflammatory cell counts and protein concentration (Example 13); format: in vivo, domestic weanling pigs
Description: (§1) Pigs were euthanized on study day 3 after clinical scoring, OCT, ERG, and wide-field ocular fundus photography was completed. After euthanasia with an overdose of intravenous barbiturate, both eyes were removed, Aqueous humor (All) was aspirated and a 1 mL sample of vitreous humor (VH) was collected from each eye immediately after euthanasia. The globe was then fixed in Davidson's solution for 24 hours, followed by alcohol. Central, saggital sections of each globe, including the optic nerve, were stained with hematoxylin and eosin and examined by light microscopy. Two pathology-trained observers, masked to the study groups, graded degree of inflammatory infiltrate of the ocular anterior and posterior segments. The grading scale for the anterior and posterior ocular segment used was as follows: 0=no evidence of cellular infiltrate; 1=a few cells infiltrated (mild)−focal; 2=a few cells infiltrated (mild)−diffuse; 3=moderate number of cells infiltrated; and 4=high amount of cellular infiltrate.
After aspiration from the eyes, AH and VH were immediately placed on ice, transferred to the laboratory, then frozen at −80° C. until processing. Samples where thawed at room temperature, vortexed, and total cell counts were performed with a hemocytometer. Total protein concentration was measured using the […] (Pierce BCA Protein Assay Kit, Thermo Scientific Pierce, Rockford, Ill.).
(§2) Differences were considered significant at P<0.05.

[5] = test system: LPS-induced acute posterior uveitis; experiment: Ocular histopathology and histologic inflammatory scores in porcine uveitis study (Example 13); format: in vivo
Description: as §1, §2

[6] = Group 3: LPS intravitreal/low dose (0.2 mg) TA SCS
[7] = Group 4: LPS intravitreal/high dose (2.0 mg) TA SCS
[8] = Group 5: LPS intravitreal/low dose (0.2 mg) TA IVT
[9] = Group 6 (printed: LPS intravitreal/high dose TA SCS)

CC1(C)O[C@@H]2C[C@H]3[C@@H]4CCC5=CC(=O)C=C[C@]5(C)[C@@]4(F)[C@@H](O)C[C@]3(C)[C@]2(C(=O)CO)O1 [TA, triamcinolone acetonide]
IOP change related to the injection procedure [1]: decrease
adverse effects related to the method of administration or 4 mg TA as assessed by histopathology [1]: no adverse effects
central corneal thickness (CCT) [1]: slight decrease
mean Cmax in plasma ([1]; 4 mg): 12 ng/mL
ratio of TA Lens:Chroroid and Lens:Retina [2]: much lower
Iris vessel dilation and tortuosity compared with the SCS vehicle group ([3]; 4 mg TA IVT): reduced to a lesser extent
Vitritis, aqueous flare, and cellularity compared to SCS vehicle eyes ([3]; 4 mg TA IVT): substantially less severe
inflammation as assessed histopathologically compared with the vehicle group ([3]; 4 mg TA IVT): marked reduction
Iris vessel dilation and tortuosity compared with the SCS vehicle group ([3]; 4 mg TA SCS): reduced
Vitritis, aqueous flare, and cellularity compared to SCS vehicle eyes ([3]; 4 mg TA SCS): substantially less severe
inflammation as assessed histopathologically compared with the vehicle group ([3]; 4 mg TA SCS): marked reduction
effectiveness in reducing the inflammatory response, SCS vs IVT ([3]; 4 mg TA SCS by hollow microneedle): as effective as 4 mg IVT TA
overall inflammatory response / inflammatory endpoints compared to vehicle control ([3]; 4 mg TA SCS, pretreatment Day 1, LPS Day 6): significant reduction
Mean AH cell counts compared with Groups 1, 5 or 6 ([4]; Group 3: low dose TA SCS): not significantly different
Mean VH cell count compared with Group 1 and Group 4 ([4]; Group 3: low dose TA SCS): significantly higher
Mean AH cell counts compared with Groups 1, 5 or 6 ([4]; Group 4: high dose TA SCS): not significantly different
mean VH cell counts compared with Group 1, the untreated control ([4]; Group 4: high dose TA SCS): not significantly different
mean vitreous humor protein concentrations compared with Groups 3, 5 and 6 ([4]; Group 4: high dose TA SCS): significantly lower
Mean AH cell counts compared with Group 1 ([4]; Group 5: low dose TA IVT): significantly higher
Mean VH cell count compared with Group 1 and Group 4 ([4]; Group 5: low dose TA IVT): significantly higher
Mean AH cell counts compared with Group 1 ([4]; Group 6: high dose TA IVT): significantly higher
mean aqueous humor protein concentration, differences among the groups ([4]; all groups): no significant differences
inflammation or histologic evidence of toxicity in the SCS ([5]; 2.0 mg TA SCS (Group 4)): no inflammation or histologic evidence of toxicity in the SCS
histopathology, inner retinal layers and vitreous [5, 6]: moderate infiltrate of neutrophils
histopathology, iris [5, 6]: mild neutrophilic infiltrate
histopathology, anterior segment [5, 7]: normal
histopathology, vitreous [5, 7]: very mild neutrophilic infiltration
mean histologic inflammatory scores in the ocular posterior segment compared with Groups 2, 5 and 6 ([5]; Group 4: high dose TA SCS): significantly lower
histopathology, anterior uvea [5, 8]: mild neurophilic infiltrate
histopathology, vitreous [5, 8]: moderate to severe cellular infiltrate
mean histologic inflammatory scores in the anterior segment compared with Groups 4 and 6 ([5]; Group 5: low dose TA IVT): significantly higher
histopathology, anterior uvea [5, 9]: mild neutrophilic infiltrate
histopathology, vitreous [5, 9]: moderate vitreal infiltrates
mean histologic inflammatory scores compared with vehicle treated eyes (Group 2) ([5]; Group 6: high dose IVT TA): significantly lower
tissue structural or toxicologic changes on histopathology ([5]; all groups, 0.2 or 2.0 mg TA SCS or IVT): None of the eyes examined in any group had evidence of substantial tissue structural or toxicologic changes

Reference: US20180028516A1, “METHODS AND DEVICES FOR THE TREATMENT OF OCULAR DISEASES IN HUMAN SUBJECTS” (CLEARSIDE BIOMEDICAL, INC., priority 2012, published 2018)
